Measurements from article PMC4546618, “Casitas B-Lineage Lymphoma RING Domain Inhibitors Protect Mice against High-Fat Diet-Induced Obesity and Insulin Resistance” (PLoS ONE, 2015).
*1 amine or outer side, *2 acyl side, *3 side chain or, on linkers, in order; H or OH if unused. Where a SMILES comes first, the peptide text is derived from it. [ ]: non-standard residue; d: D form. Phe(4-N3) = [N-]=[N+]=Nc1ccc(C[C@H](N)C(=O)O)cc1; X2 = CC(=O)CN(CCCC[C@H](N[*:1])C(=O)[*:2])C(C)=O; Phe(4-CF3) = N[C@@H](Cc1ccc(C(F)(F)F)cc1)C(=O)O; X1 = CC(=O)N(O)CCCC[C@H](N[*:1])C(=O)[*:2]; Phe(3-F) = N[C@@H](Cc1cccc(F)c1)C(=O)O; Phe(4-F) = N[C@@H](Cc1ccc(F)cc1)C(=O)O; Phe(4-Me) = Cc1ccc(C[C@H](N)C(=O)O)cc1; Phe(2-F) = N[C@@H](Cc1ccccc1F)C(=O)O; ΔPro = O=C(O)[C@@H]1C=CCN1; Pip = O=C(O)[C@@H]1CCCCN1; Thz = O=C(O)[C@@H]1CSCN1; Aze = O=C(O)[C@@H]1CCN1

Target: T1, Cbl (RING) protein (Homo sapiens, UniProt P22681)
T1 construct: including the linker and RING domain (codon 358–457); GST (Glutathione S-Transferase); made in house
T1 sequence (P22681 358-457): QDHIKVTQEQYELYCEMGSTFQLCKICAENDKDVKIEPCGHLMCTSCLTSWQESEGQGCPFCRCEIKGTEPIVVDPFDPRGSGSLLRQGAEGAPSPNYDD
Assay: Fluorescence polarization (FP) assay, competition with FITC-βA-PFKPP-NH2 probe
Type: binding
Settings: probe FITC-βA-PFKPP-NH2 100 nmol/L, Cbl (RING) protein 3 μmol/L, PBS pH 7.4
Protocol: Peptides and peptide mimetics were purchased from MitenChem (China) with a purity ≥ 98%. Concentrations values of reconstituted peptides were determined by amino acid analysis at the protein core facility (Chengdu Medical College). The recombinant Cbl protein was produced by the Chengdu Medical College Protein Core Facility and was described previously. The c-Cbl (RING) protein, including the linker and RING domain (codon 358–457), was tagged with Glutathione S-Transferase (GST) and purified with GSH-Sepharose (Shanghai Biopharma).
The FP assay was developed and validated previously. Briefly, fluorescein-labeled probe (FITC-βA-PFKPP-NH2, 100 nmol/L) and Cbl (RING) protein (3 μmol/L) were mixed and diluted to the final concentration using 0.01% Triton X-100 in PBS (pH = 7.4). Then, 19 μl of this master mix was loaded to each reaction well. The peptides or peptide mimetics were then loaded to the designated wells (1 μl, 10 μmol/L– 0.078 μmol/L, half-fold dilutions). The total fluorescence and polarization values were measured at an excitation wavelength of 485 nm and an emission wavelength of 538 nm using a ZS-2 plate reader. The data was fitted, and the ΔmP, Kd, and Ki values were estimated, using SigmaPlot 11.0.

Compound | Ki
CC(=O)N[C@@H](CCCCN)C(=O)N1CC=C[C@H]1C(=O)N[C@@H](C)C(=O)N[C@H](C(=O)N[C@@H](CCCCN)C(N)=O)[C@@H](C)O [Peptide 47, Ac-K(p)ATK-NH2] (Ac-K[ΔPro]ATK-NH2) | 44.3 ± 13.2 µM
CC(=O)CN(CCCC[C@H](NC(C)=O)C(=O)N1CCC[C@H]1C(=O)N[C@@H](C)C(=O)N[C@H](C(=O)N[C@@H](CCCCN)C(N)=O)[C@@H](C)O)C(C)=O [Peptide 41, Ac-(w)PATK-NH2] (Ac-[X2]PATK-NH2) | 96.2 ± 12.6 µM
CC(=O)N(O)CCCC[C@H](NC(=O)[C@H](Cc1cccc(F)c1)NC(=O)[C@@H]1CSCN1C(C)=O)C(=O)N1CCC[C@H]1C(=O)N1CCC[C@H]1C(N)=O [Peptide 38, Ac-(r) (h) (v)PP-NH2] (Ac-[Thz][Phe(3-F)][X1]PP-NH2) | 21.6 ± 2.6 µM
CC(=O)CN(CCCC[C@H](NC(=O)[C@@H](NC(=O)[C@H](C)NC(=O)[C@@H]1CCCN1C(=O)[C@H](CCCCN)NC(C)=O)[C@@H](C)O)C(N)=O)C(C)=O [Peptide 43, Ac-KPAT(w)-NH2] (Ac-KPAT[X2]-NH2) | 72.6 ± 9.5 µM
CC(=O)N1CCC[C@H]1C(=O)N[C@@H](Cc1cccc(F)c1)C(=O)N[C@@H](CCCCN)C(=O)N1CC[C@H]1C(=O)N1CCC[C@H]1C(N)=O [Peptide 26, Ac-P(h)K(q)P-NH2] (Ac-P[Phe(3-F)]K[Aze]P-NH2) | > 250 µM
CC(=O)N1CCC[C@H]1C(=O)N[C@@H](Cc1cccc(F)c1)C(=O)N[C@@H](CCCCN)C(=O)N1CCCC[C@H]1C(=O)N1CCC[C@H]1C(N)=O [Peptide 28, Ac-P(h)K(s)P-NH2] (Ac-P[Phe(3-F)]K[Pip]P-NH2) | 136 ± 11.2 µM
CC(=O)N1CCC[C@H]1C(=O)N[C@@H](Cc1ccccc1F)C(=O)N[C@@H](CCCCN)C(=O)N1CCC[C@H]1C(=O)N1CCC[C@H]1C(N)=O [Peptide 9, Ac-P(g)KPP-NH2] (Ac-P[Phe(2-F)]KPP-NH2) | 3.5 ± 0.6 µM
CC(=O)N1CCC[C@H]1C(=O)N[C@@H](Cc1ccc(C(F)(F)F)cc1)C(=O)N[C@@H](CCCCN)C(=O)N1CCC[C@H]1C(=O)N1CCC[C@H]1C(N)=O [Peptide 14, Ac-P(l)KPP-NH2] (Ac-P[Phe(4-CF3)]KPP-NH2) | 25.4 ± 0.7 µM
CC[C@H](C)[C@H](NC(=O)[C@@H]1CSCN1C(=O)[C@H](CCCCN)NC(C)=O)C(=O)N[C@H](C(=O)N[C@@H](CCCCN)C(N)=O)[C@@H](C)O [Peptide 55, Ac-K(r)ITK-NH2] (Ac-K[Thz]ITK-NH2) | 190 ± 19.2 µM
CC(=O)N1CCC[C@H]1C(=O)N[C@@H](Cc1ccc(F)cc1)C(=O)N[C@@H](CCCCN)C(=O)N1CCC[C@H]1C(=O)N1CCC[C@H]1C(N)=O [Peptide 11, Ac-P(i)KPP-NH2] (Ac-P[Phe(4-F)]KPP-NH2) | 2.4 ± 0.5 µM
CC(=O)N1CCC[C@H]1C(=O)N[C@@H](Cc1ccc(C)cc1)C(=O)N[C@@H](CCCCN)C(=O)N1CCC[C@H]1C(=O)N1CCC[C@H]1C(N)=O [Peptide 8, Ac-P(f)KPP-NH2] (Ac-P[Phe(4-Me)]KPP-NH2) | 5.4 ± 2.2 µM
CC(=O)N[C@@H](CCCCN)C(=O)N1CSC[C@H]1C(=O)N[C@@H](CC(C)C)C(=O)N[C@H](C(=O)N[C@@H](CCCCN)C(N)=O)[C@@H](C)O [Peptide 56, Ac-K(r)LTK-NH2] (Ac-K[Thz]LTK-NH2) | 226 ± 22.5 µM
CC(=O)N[C@@H](CCCCN)C(=O)N1CSC[C@H]1C(=O)N[C@H](C(=O)N[C@H](C(=O)N[C@@H](CCCCN)C(N)=O)[C@@H](C)O)[C@@H](C)O [Peptide 54, Ac-K(r)TTK-NH2] (Ac-K[Thz]TTK-NH2) | 201 ± 14.4 µM
CC(=O)N1CCC[C@H]1C(=O)N[C@@H](Cc1cccc(F)c1)C(=O)N[C@@H](CCCCN)C(=O)N1CCC[C@H]1C(=O)N1CC=C[C@H]1C(N)=O [Peptide 18, Ac-P(h)KP(p)-NH2] (Ac-P[Phe(3-F)]KP[ΔPro]-NH2) | > 250 µM
CC(=O)N1CCC[C@H]1C(=O)N[C@@H](Cc1cccc(F)c1)C(=O)N[C@@H](CCCCN)C(=O)N1CCC[C@H]1C(=O)N1CCCC[C@H]1C(N)=O [Peptide 21, Ac-P(h)KP(s)-NH2] (Ac-P[Phe(3-F)]KP[Pip]-NH2) | 90.9 ± 0.7 µM
CC(=O)N1CCC[C@@H]1C(=O)N[C@@H](Cc1cccc(F)c1)C(=O)N[C@@H](CCCCN)C(=O)N1CCC[C@H]1C(=O)N1CCC[C@H]1C(N)=O [Peptide 31, Ac-(o) (h)KPP-NH2] (Ac-[dP][Phe(3-F)]KPP-NH2) | 4.5 ± 0.5 µM
CC(=O)N1CCC[C@H]1C(=O)N[C@@H](Cc1ccc(N=[N+]=[N-])cc1)C(=O)N[C@@H](CCCCN)C(=O)N1CCC[C@H]1C(=O)N1CCC[C@H]1C(N)=O [Peptide 15, Ac-P(m)KPP-NH2] (Ac-P[Phe(4-N3)]KPP-NH2) | 8.4 ± 0.4 µM
